# Laboratory results published in BindingDB's records for doi:10.1016/s0960-894x(01)00475-9 (Glaxosmithkline, 2001).
# Peptide text beside a SMILES is read from it.
# Experiment: Inhibitory activity against Bacterial Tyrosyl tRNA Synthetase
row,SMILES,IC50 [nM]
1,"CCOC(=O)[C@H](NC(=O)[C@@H](N)Cc1ccc(O)cc1)[C@@H]1CC[C@H](O)[C@H](O)[C@H]1O [(R)-[(S)-2-Amino-3-(4-hydroxy-phenyl)-propionylamino]-((1S,2S,3S,4S)-2,3,4-trihydroxy-cyclohexyl)-acetic acid ethyl ester]",> 3000
2,"CCOC(=O)[C@@H](NC(=O)[C@@H](N)Cc1ccc(O)cc1)[C@@H]1CC[C@H](O)[C@H](O)[C@H]1O [(S)-[(S)-2-Amino-3-(4-hydroxy-phenyl)-propionylamino]-((1S,2S,3S,4S)-2,3,4-trihydroxy-cyclohexyl)-acetic acid ethyl ester]",245
3,"CCOC(=O)[C@H](NC(=O)[C@@H](N)Cc1ccc(O)cc1)[C@@H]1C=C[C@H](O)[C@H](O)[C@H]1O [(R)-[(S)-2-Amino-3-(4-hydroxy-phenyl)-propionylamino]-((1S,4S,5S,6S)-4,5,6-trihydroxy-cyclohex-2-enyl)-acetic acid ethyl ester]",124

# Continued, values first:
row,IC50 [nM],SMILES
1,> 3000,COC(=O)[C@@H](NC(=O)[C@@H](N)Cc1ccc(O)cc1)C1CCCCC1 [(S)-[(S)-2-Amino-3-(4-hydroxy-phenyl)-propionylamino]-cyclohexyl-acetic acid methyl ester] (HELM PEPTIDE1{Y.[O=C([C@@H](N[*:1])C1CCCCC1)[*:2]].[CO[*:1]]}$$$$V2.0)
2,3.4,"CCOC(=O)[C@@H](NC(=O)[C@@H](N)Cc1ccc(O)cc1)[C@@H]1C=C[C@H](O)[C@H](O)[C@H]1O [(S)-[(S)-2-Amino-3-(4-hydroxy-phenyl)-propionylamino]-((1S,4S,5S,6S)-4,5,6-trihydroxy-cyclohex-2-enyl)-acetic acid ethyl ester]"
